From patent publication US9259438B2, “Methods for in vitro maturation of ovarian follicles” (priority 2008, dated 2016)

B1: Kit ligand (KL): Kit ligand, activates the PI3K pathway in growing oocytes through its oocyte surface receptor Kit (protein, UniProt P20826 26-190, looked up)
Soluble KIT ligand: KEICGNPVTDNVKDITKLVANLPNDYMITLNYVAGMDVLPSHCWLRDMVIQLSLSLTTLLDKFSNISEGLSNYSIIDKLGKIVDDLVLCMEENAPKNIKESPKRPETRSFTPEEFFSIFNRSIDAFKDFMVASDTSDCVLSSTLGPEKDSRVSVTKPFMLPPVAA

Assays:
[1] = system: primordial follicles in cultured mouse ovaries; assay: Culture of postnatal day 4 mouse ovaries with PTEN inhibitor, morphological analysis; format: cell-based; conditions: postnatal day 4 mouse ovaries cultured for 8 days, 10 μM inhibitor vs. carrier
Description: Postnatal day 4 mouse ovaries containing primordial follicles were cultured for 8 days with carrier (A) or PTEN inhibitor bpv (Hopic) (B).
Postnatal day 4 mouse ovaries were removed aseptically and the whole ovary was cultured in a Cell Strainer (40 μm pore size) (BD Biosciences, Stockholm, Sweden) in 1 ml alpha-MEM medium (Gibco-BRL) supplemented with 28 mM ascorbic acid and 0.3% (w/v) BSA, with or without 10 μM of the PTEN inhibitor bpV-HOpic (Dipotassium Bisperoxo(5-hydroxypyridine-2-carboxyl)oxovanadate (V), K2[VO(O2)2C6H4NO3]). The cultured ovaries were incubated in a humidified incubator (5% CO2, 37° C.) with one-third of the medium exchanged for fresh medium every day for the duration of the culture period. For fixation, the ovaries were washed once in PBS and fixed overnight in 4% paraformaldehyde, and embedded for morphological analysis.

Akt = assay: Western blot of Akt activation (p-Akt, serine 473) in oocytes after Kit ligand treatment; format: cell-based, mouse; conditions: 100 ng/ml, 2 min; PD12-14 Pten loxP/loxP; GCre+ oocytes vs. control oocytes
Description: Oocytes were isolated from ovaries of Pten^loxP/loxP; GCre+ and Pten^loxP/loxP mice at PD5 and PD12-14, and western blots were performed (A) Levels of p-Akt (serine 473) and total Akt in PD12-14 Pten^loxP/loxP; GCre+ and Pten^loxP/loxP oocytes. (B) Activation of Akt (p-Akt, serine 473) by Kit ligand (KL) treatment (100 ng/ml, 2 min) in PD12-14 Pten^loxP/loxP; GCre+ and Pten^loxP/loxP oocytes. Levels of Akt were used as internal controls. (C) Signaling studies in Pten^loxP/loxP; GCre+ and Pten^loxP/loxP oocytes at PD5 and PD12-14, showing levels of p-Akt (serine 473), rpS6, p-rpS6 (serine 235/6), p-mTOR (serine 2448), p-TSC2 (threonine 1462), and p-S6K (threonine 389). Levels of total Akt, mTOR, TSC2, S6K, and β-actin were used as internal controls. All experiments were repeated at least 3 times. For isolation of PD5 oocytes for western blot, 10-15 Pten^loxP/loxP; GCre+ or Pten^loxP/loxP mice were used for each lane. For isolation of PD12-14 oocytes, 3-5 Pten^loxP/loxP^P; GCre+ mice or 6-10 Pten^loxP/loxP mice were used per lane. In each lane, 30-40 μg of protein sample was loaded.
Thus, activation of the pool of primordial follicles ends up with follicle depletion. This causes POF (premature ovarian failure) in Pten^loxP/loxP; GCr+ mice. The phenotype observed in these mice resembles that of human POF (Beck-Peccoz and Persani, Orphanet. J. Rare. Dis. 2006, 1: 9). […]

| Molecule | proliferation and differentiation of flattened pre-granulosa cells into cuboidal granulosa cells [1] | survival rate of follicles in the cultured ovaries [1] | activation of Akt (p-Akt, serine 473) (Akt) |
| --- | --- | --- | --- |
| Dipotassium Bisperoxo(5-hydroxypyridine-2-carboxyl)oxovanadate (V) [bpV-HOpic] | stimulates the proliferation and differentiation of flattened pre-granulosa cells | enhances the survival rate of follicles | – |
| B1 | – | – | activated Akt to a greater extent |
